Source: PMC8163982, “Partial agonism improves the anti-hyperglycaemic efficacy of an oxyntomodulin-derived GLP-1R/GCGR co-agonist” (Molecular Metabolism, 2021)
Where a SMILES comes first, the peptide text is derived from it. [ ]: non-standard residue; d: D form. Aib = CC(C)(N)C(=O)O

Key:
Format in all cases: cell-based
[1] = molecular target: GLP-1R (Homo sapiens, UniProt P43220); test: cAMP production (HTRF) in PathHunter CHO-K1 cells expressing GLP-1R; set-up: host or cells: PathHunter CHO-K1-βarr2-EA; settings: 30 min, mean ± SEM, n = 6; for EC50: 37 °C, serum-free medium, no phosphodiesterase inhibitors, read-out: GLP-1R cAMP (CHO–K1) pEC50 (converted); for Emax: CHO-K1, normalised to globally fitted maximum response
Sequence of GLP-1R (P43220 24-463): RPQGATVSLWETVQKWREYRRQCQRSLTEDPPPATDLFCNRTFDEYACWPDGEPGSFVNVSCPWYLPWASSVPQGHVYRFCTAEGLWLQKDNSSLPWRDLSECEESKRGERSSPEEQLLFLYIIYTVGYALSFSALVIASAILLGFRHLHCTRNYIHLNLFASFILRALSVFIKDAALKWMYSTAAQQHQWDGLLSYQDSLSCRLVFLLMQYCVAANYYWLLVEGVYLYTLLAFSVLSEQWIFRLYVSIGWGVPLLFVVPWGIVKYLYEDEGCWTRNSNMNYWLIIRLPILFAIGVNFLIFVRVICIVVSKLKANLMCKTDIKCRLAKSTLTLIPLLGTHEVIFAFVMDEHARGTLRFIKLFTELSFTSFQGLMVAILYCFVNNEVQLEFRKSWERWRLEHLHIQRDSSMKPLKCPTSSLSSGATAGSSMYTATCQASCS
Experimental: (§1) HEK293T cells were maintained in DMEM supplemented with 10% FBS and 1% penicillin/streptomycin. PathHunter CHO–K1-βarr2-EA cells stably expressing human GLP-1R, GCGR, or GIPR and PathHunter CHO–K1-βarr1-EA cells stably expressing GCGR were obtained from DiscoverX and maintained in Ham's F12 medium with 10% FBS and 1% penicillin/streptomycin. Stable HEK293-SNAP-GLP-1R cells were maintained in DMEM supplemented with 10% FBS, 1% penicillin/streptomycin, and 1 mg/ml of G418. INS-1 832/3 cells, a gift from Professor Chris Newgard (Duke University), were maintained in RPMI with 11 mM of glucose supplemented with 10% FBS, 10 mM of HEPES, 1 mM of pyruvate, 50 μM of β-mercaptoethanol, and 1% penicillin/streptomycin. Huh7 cells stably expressing human GCGR (Huh7-GCGR) were maintained in DMEM supplemented with 10% FBS, 1 mg/ml of G418, and 1% penicillin/streptomycin.
(§2) PathHunter cells were stimulated with the indicated concentration of agonist for 30 min at 37 °C in serum-free medium without phosphodiesterase inhibitors. INS-1 832/3 cells were stimulated with the indicated concentration of agonist for 10 min at 37 °C in serum-free medium with 100 μM of 3-isobutyl-1-methylxanthine (IBMX). Primary dispersed mouse islet cells prepared by triturating intact islets in 0.05% trypsin/EDTA for 3 min at 37 °C were stimulated with the indicated concentration of agonist for 5 min at 37 °C in serum-free medium with 11 mM of glucose and 500 μM of IBMX. Primary mouse hepatocytes were stimulated in serum-free medium with 100 μM of IBMX for 10 min or 16 h in serum-free medium with 100 μM of IBMX added for the final 10 min of incubation. Huh7-GCGR cells were stimulated in serum-free medium without phosphodiesterase inhibitors for 10 min or for 16 h in serum-free medium. Where relevant, forskolin (10 μM) was added as a positive or normalisation control. At the end of each incubation, cAMP was then assayed by HTRF (Cisbio cAMP Dynamic 2) and concentration-response curves were constructed with 3-parameter curve fitting using Prism 8.0.

[2] = molecular target: T1, SNAP-GLP-1R (Homo sapiens, UniProt P43220); test: GLP-1R internalisation by DERET in HEK293-SNAP-GLP-1R cells; settings: average response of last 3 time points of 30 min, mean ± SEM, n = 5, read-out: DERET (HEK293-SNAP-GLP-1R) pEC50 (converted)
T1 construct: expressed in transfected cells
T1 sequence (P43220 24-463): as above
Experimental: The assay was performed as previously described. HEK-SNAP-GLP-1R cells were labelled using 40 nM of SNAP-Lumi4-Tb in complete medium for 60 min at room temperature. After washing, the cells were resuspended in HBSS containing 24 μM of fluorescein and dispensed into 96-well white plates. A baseline read was serially recorded for 5 min using a FlexStation 3 instrument at 37 °C in TR-FRET mode using the following settings: λex at 340 nm, λem at 520 and 620 nm, auto cut-off, delay of 400 μs, and integration time of 1500 μs? Ligands were then added, after which the signals were repeatedly recorded for 30 min. The fluorescence signals were expressed ratiometrically after first subtracting signals from wells containing 24 μM of fluorescein but no cells. Internalisation was quantified as the AUC relative to the individual well baseline, and concentration-response curves were generated with Prism 8.0.

[3] = molecular target: T2, human GIPR (Homo sapiens, UniProt P48546); test: cAMP production (HTRF) in PathHunter CHO-K1 cells expressing GIPR; settings: 30 min, mean ± SEM, n = 6; for EC50: 37 °C, serum-free medium, no phosphodiesterase inhibitors, read-out: GIPR CAMP (CHO–K1) pEC50 (converted); for Emax: CHO-K1, normalised to globally fitted maximum response
T2 construct: host or cells: PathHunter CHO-K1-βarr2-EA
T2 sequence (P48546 22-466): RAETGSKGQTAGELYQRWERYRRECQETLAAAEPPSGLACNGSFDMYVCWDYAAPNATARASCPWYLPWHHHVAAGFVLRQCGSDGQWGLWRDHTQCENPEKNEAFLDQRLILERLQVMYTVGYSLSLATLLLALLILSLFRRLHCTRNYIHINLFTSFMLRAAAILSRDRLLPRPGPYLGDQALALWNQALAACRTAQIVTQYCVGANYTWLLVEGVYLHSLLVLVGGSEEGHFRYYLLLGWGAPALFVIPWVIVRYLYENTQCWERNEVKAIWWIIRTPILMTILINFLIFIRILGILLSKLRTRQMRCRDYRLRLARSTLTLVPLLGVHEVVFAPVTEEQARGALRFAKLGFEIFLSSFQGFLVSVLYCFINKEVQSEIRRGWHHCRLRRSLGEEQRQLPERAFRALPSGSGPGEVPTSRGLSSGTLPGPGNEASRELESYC
Experimental: as §1, §2

[4] = tested on: primary mouse hepatocytes; test: cAMP accumulation in primary mouse hepatocytes; settings: expressed relative to 10 μM forskolin response, mean ± SEM, n = 4; for cAMP 10 min (primary hepatocytes) Emax: 100 μM IBMX; for cAMP 16 h (primary hepatocytes) Emax: 100 μM IBMX for final 10 min
Experimental: Hepatocytes from adult male C57Bl/6J mice were isolated using collagenase perfusion. After filtering and washing, the cells were used to directly assay cAMP responses as described in the next section.
as §2

[5] = molecular target: T3, GCGR (Homo sapiens, UniProt P47871); test: NanoBiT mini-Gs recruitment to GCGR-SmBiT in HEK293T cells; set-up: expressed in transfected cells; host or cells: HEK293T; settings: SRB103 pair, mean ± SEM, n = 6; for Emax: HEK-293T, normalised to full agonist response, read-out: GCGR mini-Gs (HEK293T) Emax; for EC50: 3-parameter fit, read-out: GCGR mini-Gs (HEK293T) pEC50 (converted)
T3 sequence (P47871 26-477): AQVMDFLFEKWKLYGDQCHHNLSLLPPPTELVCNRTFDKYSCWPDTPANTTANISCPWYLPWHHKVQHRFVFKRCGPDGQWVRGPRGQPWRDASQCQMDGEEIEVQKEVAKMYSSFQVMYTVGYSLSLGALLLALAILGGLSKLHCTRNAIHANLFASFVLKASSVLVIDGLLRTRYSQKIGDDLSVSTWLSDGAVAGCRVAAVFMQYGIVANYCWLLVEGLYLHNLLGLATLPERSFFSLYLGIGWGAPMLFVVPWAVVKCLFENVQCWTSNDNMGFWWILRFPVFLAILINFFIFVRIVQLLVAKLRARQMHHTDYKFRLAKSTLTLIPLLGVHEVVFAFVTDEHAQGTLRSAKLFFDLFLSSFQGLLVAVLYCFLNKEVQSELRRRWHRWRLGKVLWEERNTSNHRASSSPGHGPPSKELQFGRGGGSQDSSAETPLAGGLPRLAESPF

[6] = molecular target: T3, GCGR; test: cAMP production (HTRF) in PathHunter CHO-K1 cells expressing GCGR; set-up: expressed in transfected cells; settings: 30 min, mean ± SEM, n = 6; for EC50: 37 °C, serum-free medium, no phosphodiesterase inhibitors, read-out: GCGR CAMP (CHO–K1) pEC50 (converted); for Emax: CHO-K1, normalised to globally fitted maximum response
Experimental: as §1, §2

## CC[C@H](C)[C@H](NC(=O)[C@H](Cc1ccccc1)NC(=O)[C@H](CCC(=O)O)NC(=O)[C@H](CCC(N)=O)NC(=O)[C@H](C)NC(=O)[C@H](CCCNC(=N)N)NC(=O)[C@H](CCCCN)NC(=O)[C@H](C)NC(=O)[C@H](CC(=O)O)NC(=O)[C@H](CC(C)C)NC(=O)[C@H](Cc1ccc(O)cc1)NC(=O)[C@H](CCCCN)NC(=O)[C@H](CO)NC(=O)[C@H](Cc1ccc(O)cc1)NC(=O)[C@H](CC(=O)O)NC(=O)[C@H](CO)NC(=O)[C@@H](NC(=O)[C@H](Cc1ccccc1)NC(=O)[C@@H](NC(=O)CNC(=O)[C@H](CCC(N)=O)NC(=O)C(C)(C)NC(=O)[C@@H](N)Cc1c[nH]cn1)[C@@H](C)O)[C@@H](C)O)C(=O)N[C@@H](CCC(=O)O)C(=O)N[C@@H](Cc1c[nH]c2ccccc12)C(=O)N[C@@H](CC(C)C)C(=O)N[C@@H](CC(C)C)C(=O)N[C@@H](C)C(=O)NCC(=O)N[C@@H](Cc1c[nH]cn1)C(=O)N[C@@H](Cc1c[nH]cn1)C(=O)N[C@@H](Cc1c[nH]cn1)C(=O)N[C@@H](Cc1c[nH]cn1)C(=O)N[C@@H](Cc1c[nH]cn1)C(=O)N1CCC[C@H]1C(=O)N[C@@H](CO)C(=O)N[C@@H](Cc1c[nH]c2ccccc12)C(=O)O [SRB103Q] (H-H[Aib]QGTFTSDYSKYLDAKRAQEFIEWLLAGHHHHHPSW-OH)
[1]
  EC50: 0.316 nM
  Emax: 103 ± 2%
[2]
  EC50: 20 nM
[3]
  EC50: 100 nM
  Emax: 92 ± 9%
[4]
  cAMP 10 min (primary hepatocytes) Emax: 175 ± 12
  cAMP 16 h (primary hepatocytes) Emax: 200 ± 6
[5]
  Emax: 83 ± 1%
  EC50: 20 nM
[6]
  EC50: 0.398 nM
  Emax: 103 ± 4%

## CC[C@H](C)[C@H](NC(=O)[C@H](Cc1ccccc1)NC(=O)[C@H](CCC(=O)O)NC(=O)[C@H](CCC(N)=O)NC(=O)[C@H](C)NC(=O)[C@H](CCCNC(=N)N)NC(=O)[C@H](CCCCN)NC(=O)[C@H](C)NC(=O)[C@H](CC(=O)O)NC(=O)[C@H](CC(C)C)NC(=O)[C@H](Cc1ccc(O)cc1)NC(=O)[C@H](CCCCN)NC(=O)[C@H](CO)NC(=O)[C@H](Cc1ccc(O)cc1)NC(=O)[C@H](CC(=O)O)NC(=O)[C@H](CO)NC(=O)[C@@H](NC(=O)[C@H](Cc1ccccc1)NC(=O)[C@@H](NC(=O)CNC(=O)[C@H](Cc1c[nH]cn1)NC(=O)C(C)(C)NC(=O)[C@@H](N)Cc1c[nH]cn1)[C@@H](C)O)[C@@H](C)O)C(=O)N[C@@H](CCC(=O)O)C(=O)N[C@@H](Cc1c[nH]c2ccccc12)C(=O)N[C@@H](CC(C)C)C(=O)N[C@@H](CC(C)C)C(=O)N[C@@H](C)C(=O)NCC(=O)N[C@@H](Cc1c[nH]cn1)C(=O)N[C@@H](Cc1c[nH]cn1)C(=O)N[C@@H](Cc1c[nH]cn1)C(=O)N[C@@H](Cc1c[nH]cn1)C(=O)N[C@@H](Cc1c[nH]cn1)C(=O)N1CCC[C@H]1C(=O)N[C@@H](CO)C(=O)N[C@@H](Cc1c[nH]c2ccccc12)C(=O)O [SRB103H] (H-H[Aib]HGTFTSDYSKYLDAKRAQEFIEWLLAGHHHHHPSW-OH)
[1]
  EC50: 0.316 nM
  Emax: 99 ± 4%
[2]
  EC50: 20 nM
[3]
  EC50: 25.1 nM
  Emax: 101 ± 5%
[4]
  cAMP 10 min (primary hepatocytes) Emax: 170 ± 7
  cAMP 16 h (primary hepatocytes) Emax: 206 ± 7
[5]
  Emax: 100%
  EC50: 7.94 nM
[6]
  EC50: 0.251 nM
  Emax: 107 ± 5%
